Source: US8957219B2, “Acetic acid amide derivative having inhibitory activity on endothelial lipase” (Shionogi & Co., Ltd., priority 2008, dated 2015)

The molecules below were run against human endothelial lipase (EL) (Homo sapiens (Human), UniProt Q9Y5X9) (assay: Human endothelial lipase (EL) inhibitory activity using human HDL). Conditions: human HDL 2 mg/ml, 4-hour reaction at 37° C., NEFA readout.
Format: biochemical
Method: Evaluation Method of Human Endothelial Lipase (EL) Inhibitory Activity Using Human High-Density Lipoprotein (HDL)
After the present compound dissolved in DMSO was added to become 0.5% DMSO to the reaction buffer consisting of 20 mM tris hydrochloric acid (pH7.4), bovine serum albumin (0.5%), calcium chloride (4 mM), sodium chloride (150 mM) and human HDL (2 mg/ml), the EL enzyme was added (total volume was 20 μl).
After 4-hour reaction at 37° C., non-esterified fatty acid (NEFA) generated from HDL by EL was measured with a commercially available assay kit and the amount of NEFA was used as an index of enzyme activity.

Chain of human endothelial lipase (EL) (Q9Y5X9 21-500): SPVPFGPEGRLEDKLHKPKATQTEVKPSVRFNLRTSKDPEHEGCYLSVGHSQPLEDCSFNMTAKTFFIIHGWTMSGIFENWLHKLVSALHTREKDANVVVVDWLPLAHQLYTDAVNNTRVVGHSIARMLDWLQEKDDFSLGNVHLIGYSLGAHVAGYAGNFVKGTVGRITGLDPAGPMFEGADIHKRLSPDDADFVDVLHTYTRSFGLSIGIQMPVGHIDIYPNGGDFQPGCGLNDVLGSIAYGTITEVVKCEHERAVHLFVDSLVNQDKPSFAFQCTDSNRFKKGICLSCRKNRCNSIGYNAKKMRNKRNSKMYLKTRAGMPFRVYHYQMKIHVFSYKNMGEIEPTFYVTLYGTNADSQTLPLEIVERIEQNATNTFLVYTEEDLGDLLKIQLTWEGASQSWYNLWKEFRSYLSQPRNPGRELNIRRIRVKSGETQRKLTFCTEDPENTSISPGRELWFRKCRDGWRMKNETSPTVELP

| Compound | IC50 |
| --- | --- |
| O=C(Cc1nc2ccc(-c3ccccc3)cc2s1)NCc1cccc(C(=O)O)c1 [II-1-1] | 230 nM |
| NS(=O)(=O)c1cccc(CNC(=O)Cc2nc3ccc(-c4ccccc4)cc3s2)c1 [II-1-11] | 560 nM |
| CN(C)C(=O)c1cccc(CNC(=O)Cc2nc3ccc(-c4ccccc4)cc3s2)c1 [II-1-17] | 1300 nM |
| COCC(O)CNC(=O)Cc1nc2ccc(-c3ccccc3)cc2s1 (stereo not drawn) [II-1-190] | 2100 nM |
| O=C(Cc1nc2cc(-c3cccc(C(F)(F)F)c3)ccc2s1)NCc1cccc(C(=O)O)c1 [II-1-202] | 290 nM |
| O=C(Cc1nc2ccc(-c3ccccc3)cc2s1)NCc1nc(C(=O)O)cs1 [II-1-246] | 280 nM |
| N#CCNC(=O)CNC(=O)Cc1nc2ccc(-c3ccccc3)cc2s1 [II-2-1] | 110 nM |
| N#CC1(NC(=O)CNC(=O)Cc2nc3ccc(-c4ccccc4)cc3s2)CC1 [II-2-67] | 29 nM |
| CC(O)CNC(=O)CNC(=O)Cc1nc2ccc(-c3ccccc3)cc2s1 (stereo not drawn) [II-2-131] | 92 nM |
| COc1cc2nc(CC(=O)NCC(=O)NCC#N)sc2cc1-c1ccccc1 [II-2-144] | 29 nM |
| C#CCNC(=O)CNC(=O)Cc1nc2ccc(-c3ccccc3)cc2s1 [II-2-211] | 32 nM |
| N#CCNC(=O)CNC(=O)Cc1nc2cc(-c3ccc(OC(F)(F)F)cc3)ccc2s1 [II-2-291] | 56 nM |
